The numbers were not newly measured in paper PMC9409351, “Differential Ganglioside and Cholesterol Depletion by Various Cyclodextrin Derivatives and Their Effect on Synaptosomal Glutamate Release” (International Journal of Molecular Sciences, 2022), which cites them from elsewhere.

The series concerns cell model of GM1 gangliosidosis. On the set-up: method as in doi:10.1007/s10847-018-0835-8. The following applies: immunofluorescence staining; cited from earlier work.

With “(2-hydroxypropyl)-alpha-cyclodextrin [HPACD]”, the “Lysosomal accumulation of GM1” value is “reduced lysosomal accumulation of GM1”.
